Results on seven compounds are retold here after ChEMBL document CHEMBL5291721, “A preclinical secondary pharmacology resource illuminates target-adverse drug reaction associations of marketed drugs” (Nat Commun, 2023).

One may read the AC50 as the midpoint of the concentration-response curve, whichever way the signal moves. A high value points to weaker potency.

For assay [1], the target named is Acetylcholinesterase (Homo sapiens, UniProt P22303). Type of assay: functional.
Assay [2] addresses T1, D(4) dopamine receptor (Homo sapiens, UniProt P21917).
T1 sequence (P21917 whole entry): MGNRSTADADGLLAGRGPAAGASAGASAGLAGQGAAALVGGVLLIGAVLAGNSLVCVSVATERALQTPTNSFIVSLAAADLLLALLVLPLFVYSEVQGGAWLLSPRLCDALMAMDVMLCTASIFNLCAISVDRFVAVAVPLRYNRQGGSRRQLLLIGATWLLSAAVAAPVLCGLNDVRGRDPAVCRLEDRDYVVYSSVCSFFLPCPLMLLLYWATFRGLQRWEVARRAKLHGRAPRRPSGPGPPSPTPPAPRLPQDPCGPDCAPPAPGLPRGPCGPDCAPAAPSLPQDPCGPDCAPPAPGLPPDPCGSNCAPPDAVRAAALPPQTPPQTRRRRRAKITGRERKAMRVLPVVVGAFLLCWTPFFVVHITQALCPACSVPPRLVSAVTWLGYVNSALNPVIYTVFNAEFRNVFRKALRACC

For assay [3], the target named is Sodium-dependent serotonin transporter (Homo sapiens, UniProt P31645).
Assay [4] deals with D(3) dopamine receptor (Homo sapiens, UniProt P35462).
The target in assay [5] is T2, Muscarinic acetylcholine receptor M2 (Homo sapiens, UniProt P08172).
T2 sequence (P08172 whole entry): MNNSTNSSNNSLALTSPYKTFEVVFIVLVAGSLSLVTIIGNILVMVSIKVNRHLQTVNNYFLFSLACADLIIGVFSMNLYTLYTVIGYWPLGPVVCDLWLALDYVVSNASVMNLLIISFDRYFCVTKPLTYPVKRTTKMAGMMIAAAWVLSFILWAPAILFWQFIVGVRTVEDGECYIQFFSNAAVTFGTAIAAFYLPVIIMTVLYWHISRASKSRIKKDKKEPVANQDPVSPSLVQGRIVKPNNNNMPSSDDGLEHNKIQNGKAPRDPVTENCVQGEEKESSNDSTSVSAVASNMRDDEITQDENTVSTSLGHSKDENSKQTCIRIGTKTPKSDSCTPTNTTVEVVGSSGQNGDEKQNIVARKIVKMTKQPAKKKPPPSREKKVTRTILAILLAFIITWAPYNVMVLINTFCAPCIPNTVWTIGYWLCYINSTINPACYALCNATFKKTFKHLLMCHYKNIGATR

Assay [6] has as its target 5-hydroxytryptamine receptor 2B (Homo sapiens, UniProt P41595). It counts as functional, cell-based.
Assay [7] addresses T3, 5-hydroxytryptamine receptor 1A (Homo sapiens, UniProt P08908).
T3 sequence (P08908 whole entry): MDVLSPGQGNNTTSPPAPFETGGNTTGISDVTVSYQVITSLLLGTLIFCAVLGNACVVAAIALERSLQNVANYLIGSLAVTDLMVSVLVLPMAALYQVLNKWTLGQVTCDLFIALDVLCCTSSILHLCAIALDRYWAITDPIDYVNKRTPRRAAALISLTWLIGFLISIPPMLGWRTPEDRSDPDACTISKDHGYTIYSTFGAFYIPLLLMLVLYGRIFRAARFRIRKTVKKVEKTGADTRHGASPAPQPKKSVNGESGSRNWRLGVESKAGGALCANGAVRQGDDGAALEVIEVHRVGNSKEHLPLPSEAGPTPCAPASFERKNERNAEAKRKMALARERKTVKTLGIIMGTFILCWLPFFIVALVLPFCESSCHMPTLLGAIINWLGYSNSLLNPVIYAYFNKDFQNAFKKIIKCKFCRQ

Assay [8] has as its target Sodium-dependent noradrenaline transporter (Homo sapiens, UniProt P23975).
Assay [9] addresses T4, Amine oxidase [flavin-containing] A (Homo sapiens, UniProt P21397).
T4 sequence (P21397 whole entry): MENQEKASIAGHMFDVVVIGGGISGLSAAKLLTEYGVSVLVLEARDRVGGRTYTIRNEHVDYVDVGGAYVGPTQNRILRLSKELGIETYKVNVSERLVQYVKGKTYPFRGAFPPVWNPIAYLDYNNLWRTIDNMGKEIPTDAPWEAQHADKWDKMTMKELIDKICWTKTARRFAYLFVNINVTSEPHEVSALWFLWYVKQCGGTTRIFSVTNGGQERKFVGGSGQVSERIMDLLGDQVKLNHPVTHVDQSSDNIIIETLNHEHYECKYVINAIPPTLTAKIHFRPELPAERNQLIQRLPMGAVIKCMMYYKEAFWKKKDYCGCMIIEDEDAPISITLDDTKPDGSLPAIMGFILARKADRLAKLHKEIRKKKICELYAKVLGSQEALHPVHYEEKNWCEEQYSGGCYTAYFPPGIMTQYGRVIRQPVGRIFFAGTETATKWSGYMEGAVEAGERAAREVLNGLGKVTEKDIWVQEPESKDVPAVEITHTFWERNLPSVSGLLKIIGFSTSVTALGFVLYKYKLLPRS
Type of assay: functional.

Assay [10] concerns the target T5, Alpha-2A adrenergic receptor (Homo sapiens, UniProt P08913).
T5 sequence (P08913 whole entry): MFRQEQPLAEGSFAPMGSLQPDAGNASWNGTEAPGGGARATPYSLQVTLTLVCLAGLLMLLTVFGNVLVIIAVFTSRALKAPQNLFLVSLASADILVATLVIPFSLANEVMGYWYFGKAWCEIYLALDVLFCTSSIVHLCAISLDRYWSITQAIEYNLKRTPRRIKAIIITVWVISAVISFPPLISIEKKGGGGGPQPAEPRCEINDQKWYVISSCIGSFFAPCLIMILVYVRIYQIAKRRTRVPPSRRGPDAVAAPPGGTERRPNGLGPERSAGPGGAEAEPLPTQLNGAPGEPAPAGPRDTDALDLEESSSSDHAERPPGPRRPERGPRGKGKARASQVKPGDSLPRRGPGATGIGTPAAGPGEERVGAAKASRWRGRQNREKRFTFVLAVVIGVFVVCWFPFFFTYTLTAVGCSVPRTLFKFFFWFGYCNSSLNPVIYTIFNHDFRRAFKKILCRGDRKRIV

Assay [11] has as its target Sodium-dependent dopamine transporter (Homo sapiens, UniProt Q01959).
For assay [12], the target named is D(1A) dopamine receptor (Homo sapiens, UniProt P21728).
For assay [13], the target named is Mu-type opioid receptor (Homo sapiens, UniProt P35372).
Assay [14] concerns the target T6, Alpha-1A adrenergic receptor (Homo sapiens, UniProt P35348).
T6 sequence (P35348 whole entry): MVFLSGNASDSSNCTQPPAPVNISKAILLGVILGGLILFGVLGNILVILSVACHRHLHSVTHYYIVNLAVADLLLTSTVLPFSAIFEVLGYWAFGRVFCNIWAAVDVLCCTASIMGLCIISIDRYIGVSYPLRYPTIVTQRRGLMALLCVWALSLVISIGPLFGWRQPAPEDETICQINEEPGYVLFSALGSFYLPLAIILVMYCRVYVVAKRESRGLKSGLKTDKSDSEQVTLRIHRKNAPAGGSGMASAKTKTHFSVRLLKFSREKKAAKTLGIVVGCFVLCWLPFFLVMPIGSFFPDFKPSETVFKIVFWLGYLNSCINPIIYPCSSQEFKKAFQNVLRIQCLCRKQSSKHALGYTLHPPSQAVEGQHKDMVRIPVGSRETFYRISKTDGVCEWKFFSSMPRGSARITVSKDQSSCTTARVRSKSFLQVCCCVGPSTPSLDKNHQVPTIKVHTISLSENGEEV
It counts as functional, cell-based.

Assay [15] has as its target Histamine H3 receptor (Homo sapiens, UniProt Q9Y5N1).
Assay [16] concerns the target Gamma-aminobutyric acid receptor subunit alpha-1 (Rattus norvegicus, UniProt P62813).
Further: assay procedure not described here.

Sequence of Acetylcholinesterase (P22303 whole entry): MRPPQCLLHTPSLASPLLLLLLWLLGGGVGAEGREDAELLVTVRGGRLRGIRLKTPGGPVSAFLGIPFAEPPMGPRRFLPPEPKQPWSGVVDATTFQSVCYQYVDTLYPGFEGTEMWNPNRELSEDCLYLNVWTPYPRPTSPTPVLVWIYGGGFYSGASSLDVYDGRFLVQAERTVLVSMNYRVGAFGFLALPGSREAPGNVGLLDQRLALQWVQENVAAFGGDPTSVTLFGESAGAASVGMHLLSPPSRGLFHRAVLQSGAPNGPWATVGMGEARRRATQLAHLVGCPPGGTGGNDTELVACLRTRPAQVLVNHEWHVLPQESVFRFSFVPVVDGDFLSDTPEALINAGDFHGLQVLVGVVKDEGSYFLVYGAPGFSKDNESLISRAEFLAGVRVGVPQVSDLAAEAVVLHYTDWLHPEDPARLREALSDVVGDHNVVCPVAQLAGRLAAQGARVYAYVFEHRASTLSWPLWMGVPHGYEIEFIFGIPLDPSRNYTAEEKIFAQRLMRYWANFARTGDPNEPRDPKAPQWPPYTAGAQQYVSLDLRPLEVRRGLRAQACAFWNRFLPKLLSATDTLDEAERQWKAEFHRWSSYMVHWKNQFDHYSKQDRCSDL
Sequence of Mu-type opioid receptor (P35372 whole entry): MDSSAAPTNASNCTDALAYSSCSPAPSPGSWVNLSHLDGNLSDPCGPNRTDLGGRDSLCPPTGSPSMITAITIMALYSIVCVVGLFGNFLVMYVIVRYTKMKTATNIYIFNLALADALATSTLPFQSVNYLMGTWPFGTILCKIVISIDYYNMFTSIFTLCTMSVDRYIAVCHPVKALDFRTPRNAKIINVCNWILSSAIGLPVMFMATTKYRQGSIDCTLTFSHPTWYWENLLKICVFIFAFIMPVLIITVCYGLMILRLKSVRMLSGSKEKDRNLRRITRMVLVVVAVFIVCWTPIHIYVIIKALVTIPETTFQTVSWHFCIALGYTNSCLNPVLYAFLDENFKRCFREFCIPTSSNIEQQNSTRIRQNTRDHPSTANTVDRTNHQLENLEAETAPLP
Sequence of Sodium-dependent noradrenaline transporter (P23975 whole entry): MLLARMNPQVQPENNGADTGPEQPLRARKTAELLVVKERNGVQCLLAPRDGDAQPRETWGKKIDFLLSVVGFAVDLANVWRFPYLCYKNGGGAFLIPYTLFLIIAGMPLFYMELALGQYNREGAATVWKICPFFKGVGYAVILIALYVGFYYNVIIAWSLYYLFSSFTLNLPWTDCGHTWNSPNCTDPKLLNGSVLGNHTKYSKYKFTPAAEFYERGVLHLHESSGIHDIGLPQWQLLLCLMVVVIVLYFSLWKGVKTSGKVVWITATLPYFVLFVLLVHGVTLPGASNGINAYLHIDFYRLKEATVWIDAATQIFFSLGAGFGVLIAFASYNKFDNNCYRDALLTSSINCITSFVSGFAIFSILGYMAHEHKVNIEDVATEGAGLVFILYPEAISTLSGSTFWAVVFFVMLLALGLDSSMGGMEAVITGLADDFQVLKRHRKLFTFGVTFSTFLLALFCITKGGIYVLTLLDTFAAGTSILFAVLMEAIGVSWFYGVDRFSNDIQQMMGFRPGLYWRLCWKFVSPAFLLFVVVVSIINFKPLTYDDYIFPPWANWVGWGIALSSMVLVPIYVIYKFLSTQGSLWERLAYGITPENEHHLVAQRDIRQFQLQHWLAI
Sequence of Sodium-dependent dopamine transporter (Q01959 whole entry): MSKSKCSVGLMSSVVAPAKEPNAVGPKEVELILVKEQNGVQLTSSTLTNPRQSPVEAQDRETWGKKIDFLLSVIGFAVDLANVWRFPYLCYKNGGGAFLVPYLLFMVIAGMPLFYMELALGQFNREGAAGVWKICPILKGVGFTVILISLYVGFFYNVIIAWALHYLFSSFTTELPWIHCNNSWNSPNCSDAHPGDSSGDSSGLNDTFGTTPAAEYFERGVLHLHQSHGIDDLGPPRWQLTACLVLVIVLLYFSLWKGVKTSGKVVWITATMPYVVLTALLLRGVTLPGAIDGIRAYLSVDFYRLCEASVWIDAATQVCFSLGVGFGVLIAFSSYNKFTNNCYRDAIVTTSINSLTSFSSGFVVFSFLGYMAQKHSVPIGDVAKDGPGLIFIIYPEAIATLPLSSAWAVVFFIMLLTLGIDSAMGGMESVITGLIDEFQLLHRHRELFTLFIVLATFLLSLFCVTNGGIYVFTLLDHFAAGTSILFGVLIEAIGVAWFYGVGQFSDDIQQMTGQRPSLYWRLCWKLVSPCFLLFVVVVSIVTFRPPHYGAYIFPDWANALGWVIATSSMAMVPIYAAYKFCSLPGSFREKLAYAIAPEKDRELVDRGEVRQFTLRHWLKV
Sequence of Gamma-aminobutyric acid receptor subunit alpha-1 (P62813 whole entry): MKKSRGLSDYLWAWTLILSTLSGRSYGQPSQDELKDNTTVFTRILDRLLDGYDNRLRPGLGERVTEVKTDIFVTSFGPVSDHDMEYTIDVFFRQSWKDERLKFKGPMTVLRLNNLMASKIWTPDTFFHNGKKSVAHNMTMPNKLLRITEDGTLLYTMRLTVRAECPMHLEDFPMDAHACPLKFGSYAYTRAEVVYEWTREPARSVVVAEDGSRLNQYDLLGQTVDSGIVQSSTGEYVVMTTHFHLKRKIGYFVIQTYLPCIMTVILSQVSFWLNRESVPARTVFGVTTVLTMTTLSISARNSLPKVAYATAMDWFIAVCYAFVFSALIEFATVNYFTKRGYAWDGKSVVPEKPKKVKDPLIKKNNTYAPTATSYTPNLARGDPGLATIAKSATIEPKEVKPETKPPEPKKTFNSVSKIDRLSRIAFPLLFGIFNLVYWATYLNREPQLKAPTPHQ
Sequence of Histamine H3 receptor (Q9Y5N1 whole entry): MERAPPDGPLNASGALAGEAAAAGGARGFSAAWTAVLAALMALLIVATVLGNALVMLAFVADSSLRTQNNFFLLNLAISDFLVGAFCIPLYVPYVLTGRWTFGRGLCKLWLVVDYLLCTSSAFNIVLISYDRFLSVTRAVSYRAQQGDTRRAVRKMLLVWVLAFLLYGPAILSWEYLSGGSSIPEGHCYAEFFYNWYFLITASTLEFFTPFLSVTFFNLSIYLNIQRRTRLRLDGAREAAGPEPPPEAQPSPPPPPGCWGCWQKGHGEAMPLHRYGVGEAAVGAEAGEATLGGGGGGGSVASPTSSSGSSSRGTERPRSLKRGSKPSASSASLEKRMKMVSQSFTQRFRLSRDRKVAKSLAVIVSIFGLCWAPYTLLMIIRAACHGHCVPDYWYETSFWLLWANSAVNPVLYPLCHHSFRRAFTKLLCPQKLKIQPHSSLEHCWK
Sequence of D(1A) dopamine receptor (P21728 whole entry): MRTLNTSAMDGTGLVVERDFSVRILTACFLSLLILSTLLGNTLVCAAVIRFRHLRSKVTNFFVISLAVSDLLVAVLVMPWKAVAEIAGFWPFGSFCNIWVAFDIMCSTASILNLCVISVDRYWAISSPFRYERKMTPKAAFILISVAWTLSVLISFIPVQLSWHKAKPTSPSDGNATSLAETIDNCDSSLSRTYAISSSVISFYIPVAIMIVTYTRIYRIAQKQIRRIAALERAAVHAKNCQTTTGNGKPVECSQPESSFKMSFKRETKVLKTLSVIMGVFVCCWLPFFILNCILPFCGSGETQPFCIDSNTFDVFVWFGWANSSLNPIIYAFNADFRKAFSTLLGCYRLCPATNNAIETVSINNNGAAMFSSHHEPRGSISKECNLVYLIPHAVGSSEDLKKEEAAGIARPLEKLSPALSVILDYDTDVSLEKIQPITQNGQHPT
Sequence of Sodium-dependent serotonin transporter (P31645 whole entry): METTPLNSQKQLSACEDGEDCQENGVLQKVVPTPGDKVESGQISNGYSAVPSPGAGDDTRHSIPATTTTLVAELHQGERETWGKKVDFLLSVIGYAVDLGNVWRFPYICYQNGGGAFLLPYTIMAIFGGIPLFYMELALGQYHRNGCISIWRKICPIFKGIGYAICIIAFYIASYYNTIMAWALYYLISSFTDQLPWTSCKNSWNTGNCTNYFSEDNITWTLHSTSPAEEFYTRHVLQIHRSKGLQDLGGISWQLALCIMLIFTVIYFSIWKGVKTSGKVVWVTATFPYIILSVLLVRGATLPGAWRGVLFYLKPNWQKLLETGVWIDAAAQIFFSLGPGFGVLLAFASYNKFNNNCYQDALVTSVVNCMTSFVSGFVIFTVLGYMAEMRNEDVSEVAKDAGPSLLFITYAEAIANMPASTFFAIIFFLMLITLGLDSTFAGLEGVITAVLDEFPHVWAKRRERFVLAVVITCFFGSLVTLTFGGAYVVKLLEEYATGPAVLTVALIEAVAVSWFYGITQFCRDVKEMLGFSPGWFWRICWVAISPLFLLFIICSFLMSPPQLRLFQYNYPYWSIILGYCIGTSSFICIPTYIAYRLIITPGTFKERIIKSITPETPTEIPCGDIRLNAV
Sequence of D(3) dopamine receptor (P35462 whole entry): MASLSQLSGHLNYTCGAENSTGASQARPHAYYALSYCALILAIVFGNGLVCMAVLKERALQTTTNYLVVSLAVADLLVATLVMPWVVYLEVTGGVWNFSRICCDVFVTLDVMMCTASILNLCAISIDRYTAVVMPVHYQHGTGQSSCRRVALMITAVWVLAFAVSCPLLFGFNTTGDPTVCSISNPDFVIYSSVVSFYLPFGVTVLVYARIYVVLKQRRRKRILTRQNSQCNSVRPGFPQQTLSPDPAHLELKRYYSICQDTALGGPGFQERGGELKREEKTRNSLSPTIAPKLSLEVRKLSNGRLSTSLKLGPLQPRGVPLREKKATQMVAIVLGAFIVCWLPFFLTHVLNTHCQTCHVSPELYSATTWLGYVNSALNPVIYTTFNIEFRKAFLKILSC

Take `CCOC(=O)C1=C(COCCN)NC(C)=C(C(=O)OC)C1c1ccccc1Cl` (stereo unspecified) [AMLODIPINE]: in [1], the concentration at half-maximal activity (AC50) is more than 30 µM.
The same measure, in the same setting: to `CN/C(=N/CCSCc1nc[nH]c1C)NC#N` [CIMETIDINE] belongs more than 30 µM.
Turning to `O=c1[nH]c2ccccc2n1C1CCN(CCCC(c2ccc(F)cc2)c2ccc(F)cc2)CC1` [PIMOZIDE], the AC50 in assay [2] turned out to be 0.0728 µM. That is a double-digit nanomolar value.
As to `CN1CCN(CC(=O)N2c3ccccc3C(=O)Nc3cccnc32)CC1` [PIRENZEPINE], the AC50 in [1] and in assay [3] was more than 30 µM each time.
On to `CC[C@@]1(O)C[C@H](O[C@H]2C[C@H](N(C)C)[C@H](O[C@H]3C[C@H](O)[C@H](O[C@H]4CCC(=O)[C@H](C)O4)[C@H](C)O3)[C@H](C)O2)c2c(cc3c(c2O)C(=O)c2c(O)cccc2C3=O)[C@H]1C(=O)OC` [ACLARUBICIN], for which the AC50 in [4], in assay [5], in assay [6], in [7], in assay [1] and in assay [8] was more than 30 µM in each case. Also, the AC50 in assay [9], in [10], in assay [11], in [12], in assay [13] and in assay [14] was more than 30 µM in each case. In addition, the AC50 in [15] and in assay [16] was more than 30 µM in each case.
Compound `CC(C)n1c(/C=C/C(O)CC(O)CC(=O)O)c(-c2ccc(F)cc2)c2ccccc21` (stereo unspecified) [FLUVASTATIN] showed an AC50 in assay [1] of more than 30 µM.
In turn, `CN1CCCN=C1/C=C/c1cccs1` returned an AC50 in [1] of 10.9 µM.
